These results are taken from patent US5200429A, “Acne vulgaris treating” (Takasago International Corporation, priority 1990, dated 1993).

Values after ≈ are worked out from the molar mass of the structure shown. Where two headings read alike, the source gives them in different places.

Data set [1] deals with Propionibacterium acnes (ATCC 11827). In words: Minimum inhibitory concentration (MIC) against Propionibacterium acnes (Test Example 1). It is filed as cell-based. Here is the method:
The minimum inhibitory concentration (MIC) of caryophyllene, cedrene, longifolene, and thujopsene obtained in Preparation Example against Propionibacterium acnes (ATCC 11827) was determined as follows.
The test compound was added to a 4.6% ABCM bouillon aqueous solution (prepared by dissolving 46 g of an ABCM bouillon medium produced by Eiken Kagaku K. K. in 1 l of distilled water) in a concentration of 100 μg/ml, and the solution was stepwise diluted two times with the same medium, followed by sterilization.
A 5 ml aliquot of the solution was put in a test tube and inoculated with 0.1 ml of the culture of Propionibacterium acnes which had been preliminarily cultured so as to have a cell density of 5×10^8 cells/ml. The system was static-cultured under anaerobic conditions at 37° C. for 48 hours, and the turbidity of the cultured system was measured at a wavelength of 600 nm to obtain MIC (μg/ml).

The test system of a further data set is skin. As to conditions: conventional use in acne vulgaris; cited from earlier work.
The next data set deals with several fungi. Particulars: Indian Perfumer, 28(2), 82-87 (1984); cited from earlier work.
The subject of data set [2] is Escherichia coli. Particulars: Indian Perfumer, 28(2), 82-87 (1984); cited from earlier work.
A further data set concerns Pseudomonas aeruginosa. Particulars: J. Antibact. Antifung. Agents, 8(1), 3-6 (1980); cited from earlier work.
In another data set the test system is Bacillus subtilis. Particulars: J. Antibact. Antifung. Agents, 8(1), 3-6 (1980); cited from earlier work.
Data set [3] concerns Escherichia coli. As to conditions: J. Antibact. Antifung. Agents, 8(1), 3-6 (1980); cited from earlier work.
The subject of the next data set is various molds. As to conditions: J. Antibact. Antifung. Agents, 8(1), 3-6 (1980); cited from earlier work.
The mark [4] stands for this setting: Cutibacterium acnes, ATCC11827, anaerobic, 37° C., 48 hours, turbidity at 600 nm, read-out: MIC.

Consider Cedrene, for which the MIC in data set [1] (anaerobic, 37° C., 48 hours, turbidity at 600 nm) was 1.57 µg/mL.

On to `[H]/N=C(\N/C(=N/[H])NCCCCCCNC(=N)NC(=N)Nc1ccc(Cl)cc1)Nc1ccc(Cl)cc1` [Chlorhexidine Gluconate], for which the side effects entry in the data set on skin was “side effects of causing erythema or exfoliation, causing extreme skin roughening and skin irritation”.

As to `C=C1CC/C=C(/C)CC[C@@H]2[C@@H]1CC2(C)C` [Caryophyllene], the antimicrobial activity entry in the data set on several fungi and in the data set on Escherichia coli [2] was “no activity” each time. This molecule returned an MIC in data set [1] (Cutibacterium acnes, ATCC11827, 48 h) of 3.13 µg/mL (≈ 15.3 µM).

Turning to `C=C1[C@H]2CC[C@@H]3[C@H]2C(C)(C)CCC[C@]13C` [Longifolene], in data set [1] (setting [4]), the MIC was found to be 1.57 µg/mL (≈ 7.68 µM).

Regarding `C=CCc1ccc(O)c(OC)c1` [Eugenol, reference compound], the antimicrobial activity entry in the data set with several fungi and with Escherichia coli [2] was “strong antimicrobial activity” each time. Besides, the MIC in data set [1] (setting [4]) worked out at 50 µg/mL (≈ 304 µM).

As to `CC1=CC[C@]2(C)CCCC(C)(C)[C@@]23C[C@@H]13` [Thujopsene], the antimicrobial activity result is “any substantial antimicrobial activity on various molds, Bacillus subtilis, Escherichia coli, and Pseudomonas aeruginosa was not exhibited” with Pseudomonas aeruginosa; “any substantial antimicrobial activity on various molds, Bacillus subtilis, Escherichia coli, and Pseudomonas aeruginosa was not exhibited” in the data set on Bacillus subtilis; “any substantial antimicrobial activity on various molds, Bacillus subtilis, Escherichia coli, and Pseudomonas aeruginosa was not exhibited” with Escherichia coli [3]; “any substantial antimicrobial activity on various molds, Bacillus subtilis, Escherichia coli, and Pseudomonas aeruginosa was not exhibited” in the data set on various molds. The minimal inhibitory concentration (MIC) in data set [1] (setting [4]) turned out to be 6.25 µg/mL (≈ 30.6 µM).
